Assay results taken from PMC7407272, “Induction of Lysosome Membrane Permeabilization as a Therapeutic Strategy to Target Pancreatic Cancer Stem Cells” (Cancers, 2020).

Columns and labels:
[1] = biological target: T1, MAP3K3 (Homo sapiens, UniProt Q99759); experiment: KINOMEscan; format: binding; details: read-out: % Ctrl
T1 construct: purchased DiscoveRx KINOMEscan

[2] = biological target: T2, VRK2 (Homo sapiens, UniProt Q86Y07); experiment: KINOMEscan; format: binding; details: read-out: % Ctrl
T2 construct: purchased DiscoveRx KINOMEscan

[3] = biological target: T3, RPS6KA5(KD2-C-t.) (Homo sapiens, UniProt O75582); experiment: KINOMEscan; format: binding; details: read-out: % Ctrl
T3 construct: RPS6KA5(KD2-C-t.); purchased DiscoveRx KINOMEscan

[4] = biological target: T4, ANKK1 (Homo sapiens, UniProt Q8NFD2); experiment: KINOMEscan; format: binding; details: read-out: % Ctrl
T4 construct: purchased DiscoveRx KINOMEscan

[5] = biological target: T5, RSK2(KD1-N-t.) (Homo sapiens, UniProt P51812); experiment: KINOMEscan; format: binding; details: read-out: % Ctrl
T5 construct: RSK2(KD1-N-t.); purchased DiscoveRx KINOMEscan

[6] = biological target: T6, STK16 (Homo sapiens, UniProt O75716); experiment: KINOMEscan; format: binding; details: read-out: % Ctrl
T6 construct: purchased DiscoveRx KINOMEscan

[7] = biological target: T7, PCTK2 (Homo sapiens, UniProt Q00537); experiment: KINOMEscan; format: binding; details: read-out: % Ctrl
T7 construct: purchased DiscoveRx KINOMEscan

[8] = biological target: T8, TAOK3 (Homo sapiens, UniProt Q9H2K8); experiment: KINOMEscan; format: binding; details: read-out: % Ctrl
T8 construct: purchased DiscoveRx KINOMEscan

[9] = biological target: T9, ABL1(T315I)-nonP (Homo sapiens, UniProt P00519, T315I); experiment: KINOMEscan; format: binding; details: read-out: % Ctrl
T9 construct: purchased DiscoveRx KINOMEscan

[10] = biological target: T10, DAPK3 (Homo sapiens, UniProt O43293); experiment: KINOMEscan; format: binding; details: read-out: % Ctrl
T10 construct: purchased DiscoveRx KINOMEscan

[11] = biological target: T11, OSR1 (Homo sapiens, UniProt O95747); experiment: KINOMEscan; format: binding; details: read-out: % Ctrl
T11 construct: purchased DiscoveRx KINOMEscan

[12] = biological target: T12, p38-gamma (Homo sapiens, UniProt P53778); experiment: KINOMEscan; format: binding; details: read-out: % Ctrl
T12 construct: purchased DiscoveRx KINOMEscan

[13] = biological target: T13, NEK1 (Homo sapiens, UniProt Q96PY6); experiment: KINOMEscan; format: binding; details: read-out: % Ctrl
T13 construct: purchased DiscoveRx KINOMEscan

[14] = biological target: T14, MLK1 (Homo sapiens, UniProt P80192); experiment: KINOMEscan; format: binding; details: read-out: % Ctrl
T14 construct: purchased DiscoveRx KINOMEscan

[15] = biological target: T15, TNK1 (Homo sapiens, UniProt Q13470); experiment: KINOMEscan; format: binding; details: read-out: % Ctrl
T15 construct: purchased DiscoveRx KINOMEscan

[16] = biological target: T16, ITK (Homo sapiens, UniProt Q08881); experiment: KINOMEscan; format: binding; details: read-out: % Ctrl
T16 construct: purchased DiscoveRx KINOMEscan

[17] = biological target: T17, GRK1 (Homo sapiens, UniProt Q15835); experiment: KINOMEscan; format: binding; details: read-out: % Ctrl
T17 construct: purchased DiscoveRx KINOMEscan

[18] = biological target: T18, EPHA1 (Homo sapiens, UniProt P21709); experiment: KINOMEscan; format: binding; details: read-out: % Ctrl
T18 construct: purchased DiscoveRx KINOMEscan

[19] = biological target: T19, PRKG1 (Homo sapiens, UniProt Q13976); experiment: KINOMEscan; format: binding; details: read-out: % Ctrl
T19 construct: purchased DiscoveRx KINOMEscan

[20] = biological target: T20, IKK-epsilon (Homo sapiens, UniProt Q14164); experiment: KINOMEscan; format: binding; details: read-out: % Ctrl
T20 construct: purchased DiscoveRx KINOMEscan

[21] = biological target: T21, NEK4 (Homo sapiens, UniProt P51957); experiment: KINOMEscan; format: binding; details: read-out: % Ctrl
T21 construct: purchased DiscoveRx KINOMEscan

[22] = test system: EGFR(L747-T751del,Sins); experiment: KINOMEscan; format: binding, human; details: 1 µM
[23] = biological target: T22, PIK3CD (Homo sapiens, UniProt O00329); experiment: KINOMEscan; format: binding; details: read-out: % Ctrl
T22 construct: purchased DiscoveRx KINOMEscan

[24] = Pharmacokinetic study; format: in vivo; details: BALB/c mice
Description: Female BABL/c mice, 10 weeks old were used (n = 3 per time point). Compound 2 was formulated in 0.9% NaCl solution for both oral and intravenous (i.v.) injections. Plasma samples were collected following a single i.v. or oral administration of 8 mg/kg at 0.08, 0.16, 0.25, 0.5, 1, 4, 8 and 24 h. The extraction of Cpd 2 from plasma was achieved by solid phase extraction followed by high performance liquid chromatography/tandem mass spectrometry (Agilent 1100, Applied Biosystems API2000) analysis. The amount of inhibitor and the internal standard in each mouse plasma sample were quantified based on calibration curves generated using standards of known concentrations of compound. This assay method was sufficiently accurate for the quantification of Cpd 2 with a limit of detection (LOD) and a low limit of quantification (LLOQ) of 5 ng/mL. Pharmacokinetic parameters were estimated using WinNonlin Version 5.2 software (Pharsight Corp., Mountain View, CA, USA), by fitting both the experimental i.v and oral data to a bicompartimental model.

[25] = biological target: T23, CSK (Homo sapiens, UniProt P41240); experiment: KINOMEscan; format: binding; details: read-out: % Ctrl
T23 construct: purchased DiscoveRx KINOMEscan

[26] = biological target: T24, ALK(C1156Y) (Homo sapiens, UniProt Q9UM73, C1156Y); experiment: KINOMEscan; format: binding; details: read-out: % Ctrl
T24 construct: purchased DiscoveRx KINOMEscan

[27] = biological target: T25, DAPK1 (Homo sapiens, UniProt P53355); experiment: KINOMEscan; format: binding; details: read-out: % Ctrl
T25 construct: purchased DiscoveRx KINOMEscan

[28] = biological target: T26, TRKC (Homo sapiens, UniProt Q16288); experiment: KINOMEscan; format: binding; details: read-out: % Ctrl
T26 construct: purchased DiscoveRx KINOMEscan

[29] = biological target: T27, JAK1(JH2D.-pseudoK.) (Homo sapiens, UniProt P23458); experiment: KINOMEscan; format: binding; details: read-out: % Ctrl
T27 construct: JAK1(JH2D.-pseudoK.); purchased DiscoveRx KINOMEscan

[30] = biological target: T28, STK39 (Homo sapiens, UniProt Q9UEW8); experiment: KINOMEscan; format: binding; details: read-out: % Ctrl
T28 construct: purchased DiscoveRx KINOMEscan

[31] = biological target: T29, PLK4 (Homo sapiens, UniProt O00444); experiment: KINOMEscan; format: binding; details: read-out: % Ctrl
T29 construct: purchased DiscoveRx KINOMEscan

[32] = biological target: T30, AKT2 (Homo sapiens, UniProt P31751); experiment: KINOMEscan; format: binding; details: read-out: % Ctrl
T30 construct: purchased DiscoveRx KINOMEscan

[33] = biological target: T31, YSK1 (Homo sapiens, UniProt O00506); experiment: KINOMEscan; format: binding; details: read-out: % Ctrl
T31 construct: purchased DiscoveRx KINOMEscan

[34] = biological target: T32, CDK4-cyclinD3 (Homo sapiens, UniProt P11802); experiment: KINOMEscan; format: binding; details: read-out: % Ctrl
T32 construct: purchased DiscoveRx KINOMEscan

[35] = biological target: T33, GRK4 (Homo sapiens, UniProt P32298); experiment: KINOMEscan; format: binding; details: read-out: % Ctrl
T33 construct: purchased DiscoveRx KINOMEscan

[36] = biological target: T34, EPHA6 (Homo sapiens, UniProt Q9UF33); experiment: KINOMEscan; format: binding; details: read-out: % Ctrl
T34 construct: purchased DiscoveRx KINOMEscan

[37] = biological target: T35, SRC (Homo sapiens, UniProt P12931); experiment: KINOMEscan; format: binding; details: read-out: % Ctrl
T35 construct: purchased DiscoveRx KINOMEscan

T27 sequence (P23458 583-855 limits assumed): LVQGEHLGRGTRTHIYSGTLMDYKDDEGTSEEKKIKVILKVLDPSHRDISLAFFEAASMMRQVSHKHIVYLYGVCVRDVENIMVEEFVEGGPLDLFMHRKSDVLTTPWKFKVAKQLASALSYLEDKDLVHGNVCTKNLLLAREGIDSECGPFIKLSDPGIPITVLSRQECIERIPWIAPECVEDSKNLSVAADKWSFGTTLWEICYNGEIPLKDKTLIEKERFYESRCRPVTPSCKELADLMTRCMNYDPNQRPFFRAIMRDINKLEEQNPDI
T3 sequence (O75582 388-802 limits assumed): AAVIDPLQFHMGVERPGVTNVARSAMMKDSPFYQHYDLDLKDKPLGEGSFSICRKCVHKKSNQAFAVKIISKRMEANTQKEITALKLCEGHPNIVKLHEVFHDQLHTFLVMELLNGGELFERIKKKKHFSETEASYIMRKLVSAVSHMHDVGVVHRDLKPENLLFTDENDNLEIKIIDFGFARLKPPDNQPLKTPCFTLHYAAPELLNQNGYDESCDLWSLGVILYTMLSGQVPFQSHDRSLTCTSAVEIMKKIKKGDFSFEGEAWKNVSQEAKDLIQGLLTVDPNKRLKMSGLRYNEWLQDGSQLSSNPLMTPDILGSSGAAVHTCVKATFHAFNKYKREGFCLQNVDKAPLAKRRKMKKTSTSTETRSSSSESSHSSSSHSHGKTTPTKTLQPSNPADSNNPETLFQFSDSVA
T5 sequence (P51812 1-397 limits assumed): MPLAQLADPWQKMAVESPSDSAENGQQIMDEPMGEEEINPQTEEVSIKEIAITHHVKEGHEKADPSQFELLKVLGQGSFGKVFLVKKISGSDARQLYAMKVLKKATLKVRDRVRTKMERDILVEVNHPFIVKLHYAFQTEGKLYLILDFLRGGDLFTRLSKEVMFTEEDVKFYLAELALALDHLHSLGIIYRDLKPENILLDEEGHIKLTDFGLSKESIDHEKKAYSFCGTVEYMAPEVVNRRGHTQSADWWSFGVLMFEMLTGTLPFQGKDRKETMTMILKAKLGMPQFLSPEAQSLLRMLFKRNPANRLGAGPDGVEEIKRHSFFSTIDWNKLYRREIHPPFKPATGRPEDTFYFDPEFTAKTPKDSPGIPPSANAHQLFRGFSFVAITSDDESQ
T23 sequence (P41240 whole entry): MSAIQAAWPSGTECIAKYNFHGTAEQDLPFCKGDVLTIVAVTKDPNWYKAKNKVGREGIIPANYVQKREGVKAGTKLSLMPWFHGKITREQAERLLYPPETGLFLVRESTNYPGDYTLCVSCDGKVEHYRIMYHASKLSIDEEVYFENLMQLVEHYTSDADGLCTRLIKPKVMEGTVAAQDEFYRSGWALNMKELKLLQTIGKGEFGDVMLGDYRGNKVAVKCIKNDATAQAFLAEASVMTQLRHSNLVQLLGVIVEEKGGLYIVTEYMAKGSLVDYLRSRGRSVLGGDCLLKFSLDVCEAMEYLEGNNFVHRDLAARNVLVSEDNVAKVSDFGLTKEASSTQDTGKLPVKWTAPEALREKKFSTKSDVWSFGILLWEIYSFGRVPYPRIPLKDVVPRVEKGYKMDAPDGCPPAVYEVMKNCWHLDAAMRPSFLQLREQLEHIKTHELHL
T11 sequence (O95747 whole entry): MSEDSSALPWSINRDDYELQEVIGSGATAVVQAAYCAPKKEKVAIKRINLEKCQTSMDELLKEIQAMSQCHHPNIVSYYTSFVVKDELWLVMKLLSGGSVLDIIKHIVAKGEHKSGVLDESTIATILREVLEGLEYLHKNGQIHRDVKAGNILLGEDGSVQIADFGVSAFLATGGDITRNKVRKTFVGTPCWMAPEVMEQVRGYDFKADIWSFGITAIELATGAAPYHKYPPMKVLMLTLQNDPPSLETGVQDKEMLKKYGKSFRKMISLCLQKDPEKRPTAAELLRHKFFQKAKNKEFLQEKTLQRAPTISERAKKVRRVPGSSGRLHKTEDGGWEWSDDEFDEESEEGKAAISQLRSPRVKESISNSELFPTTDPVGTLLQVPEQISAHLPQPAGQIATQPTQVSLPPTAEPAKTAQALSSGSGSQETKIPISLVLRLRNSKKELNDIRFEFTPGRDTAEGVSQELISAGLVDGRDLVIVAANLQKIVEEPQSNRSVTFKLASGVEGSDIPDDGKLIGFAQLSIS
T4 sequence (Q8NFD2 whole entry): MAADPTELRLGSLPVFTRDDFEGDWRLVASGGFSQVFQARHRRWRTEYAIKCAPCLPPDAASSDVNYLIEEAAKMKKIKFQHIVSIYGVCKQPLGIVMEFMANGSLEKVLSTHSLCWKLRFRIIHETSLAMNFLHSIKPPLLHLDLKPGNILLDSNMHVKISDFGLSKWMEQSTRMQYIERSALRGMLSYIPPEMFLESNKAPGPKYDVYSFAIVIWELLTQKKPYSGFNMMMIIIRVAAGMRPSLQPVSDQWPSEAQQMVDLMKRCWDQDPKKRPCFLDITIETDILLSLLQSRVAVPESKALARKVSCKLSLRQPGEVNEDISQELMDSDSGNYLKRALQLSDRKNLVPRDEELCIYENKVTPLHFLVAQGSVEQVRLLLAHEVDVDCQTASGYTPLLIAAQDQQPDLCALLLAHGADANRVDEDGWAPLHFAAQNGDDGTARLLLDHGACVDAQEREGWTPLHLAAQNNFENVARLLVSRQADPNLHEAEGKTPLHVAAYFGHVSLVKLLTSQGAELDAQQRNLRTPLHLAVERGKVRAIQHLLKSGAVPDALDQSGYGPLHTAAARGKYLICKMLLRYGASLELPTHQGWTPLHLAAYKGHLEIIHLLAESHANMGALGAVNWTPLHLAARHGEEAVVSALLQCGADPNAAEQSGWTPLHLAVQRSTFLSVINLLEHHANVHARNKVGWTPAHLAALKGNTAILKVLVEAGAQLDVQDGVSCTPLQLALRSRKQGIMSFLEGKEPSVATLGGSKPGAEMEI
T22 sequence (O00329 whole entry): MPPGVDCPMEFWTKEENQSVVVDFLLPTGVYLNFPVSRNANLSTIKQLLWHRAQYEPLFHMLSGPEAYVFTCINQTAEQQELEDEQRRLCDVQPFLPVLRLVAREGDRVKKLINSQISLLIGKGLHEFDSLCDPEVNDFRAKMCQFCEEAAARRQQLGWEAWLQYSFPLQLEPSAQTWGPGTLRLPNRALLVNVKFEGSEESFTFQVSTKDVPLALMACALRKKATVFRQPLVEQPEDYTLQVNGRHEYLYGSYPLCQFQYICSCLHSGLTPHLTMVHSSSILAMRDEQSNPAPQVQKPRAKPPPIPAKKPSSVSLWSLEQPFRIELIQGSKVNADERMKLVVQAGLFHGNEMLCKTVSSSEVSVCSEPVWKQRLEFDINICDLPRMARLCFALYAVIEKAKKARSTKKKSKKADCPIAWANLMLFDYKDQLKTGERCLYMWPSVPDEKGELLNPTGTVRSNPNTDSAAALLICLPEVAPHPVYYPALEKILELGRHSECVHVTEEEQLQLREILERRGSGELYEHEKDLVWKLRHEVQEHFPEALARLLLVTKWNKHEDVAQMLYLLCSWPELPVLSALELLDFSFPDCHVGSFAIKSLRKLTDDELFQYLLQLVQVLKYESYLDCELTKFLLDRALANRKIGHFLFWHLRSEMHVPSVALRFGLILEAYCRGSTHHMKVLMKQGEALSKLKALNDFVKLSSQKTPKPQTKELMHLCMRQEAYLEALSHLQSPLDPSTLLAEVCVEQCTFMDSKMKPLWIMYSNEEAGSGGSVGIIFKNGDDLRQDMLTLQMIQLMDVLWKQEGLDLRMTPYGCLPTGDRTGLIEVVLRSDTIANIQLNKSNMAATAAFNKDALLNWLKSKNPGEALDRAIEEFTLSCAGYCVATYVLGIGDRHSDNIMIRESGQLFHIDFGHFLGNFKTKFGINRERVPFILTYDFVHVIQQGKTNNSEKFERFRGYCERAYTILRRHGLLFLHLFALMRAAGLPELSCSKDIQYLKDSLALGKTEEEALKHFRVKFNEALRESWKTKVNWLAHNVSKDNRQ
T10 sequence (O43293 whole entry): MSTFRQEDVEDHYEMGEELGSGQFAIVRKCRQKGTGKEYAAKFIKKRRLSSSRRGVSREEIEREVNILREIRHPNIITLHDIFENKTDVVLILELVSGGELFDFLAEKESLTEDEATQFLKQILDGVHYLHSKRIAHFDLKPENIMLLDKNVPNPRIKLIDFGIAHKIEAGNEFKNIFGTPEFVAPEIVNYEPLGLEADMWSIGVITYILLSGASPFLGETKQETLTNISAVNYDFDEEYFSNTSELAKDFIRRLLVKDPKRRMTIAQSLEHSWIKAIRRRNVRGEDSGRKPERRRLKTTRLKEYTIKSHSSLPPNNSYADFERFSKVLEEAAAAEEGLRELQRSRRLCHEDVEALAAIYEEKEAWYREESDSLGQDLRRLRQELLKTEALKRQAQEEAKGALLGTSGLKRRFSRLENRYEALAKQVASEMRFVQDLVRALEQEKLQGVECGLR
T16 sequence (Q08881 whole entry): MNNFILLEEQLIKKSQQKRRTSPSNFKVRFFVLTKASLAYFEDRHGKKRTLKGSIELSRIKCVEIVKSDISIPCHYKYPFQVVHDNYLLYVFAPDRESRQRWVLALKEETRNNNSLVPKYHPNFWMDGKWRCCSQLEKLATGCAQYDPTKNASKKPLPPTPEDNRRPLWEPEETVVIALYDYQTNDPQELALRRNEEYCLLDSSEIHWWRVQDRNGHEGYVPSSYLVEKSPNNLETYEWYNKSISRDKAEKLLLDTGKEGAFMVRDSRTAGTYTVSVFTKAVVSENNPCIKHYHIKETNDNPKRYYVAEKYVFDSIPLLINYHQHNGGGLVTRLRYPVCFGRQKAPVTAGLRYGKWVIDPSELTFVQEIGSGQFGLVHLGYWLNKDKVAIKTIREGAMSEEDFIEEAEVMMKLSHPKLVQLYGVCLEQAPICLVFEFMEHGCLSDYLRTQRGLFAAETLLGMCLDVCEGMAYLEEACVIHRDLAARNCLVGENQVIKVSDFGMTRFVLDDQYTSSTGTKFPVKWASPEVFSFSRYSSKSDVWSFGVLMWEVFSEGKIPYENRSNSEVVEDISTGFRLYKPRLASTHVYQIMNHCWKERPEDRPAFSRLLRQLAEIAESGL

Question: With CN1CCC(CNc2ccc3ncc(C(=O)Nc4cccc(OC(F)(F)F)c4)n3n2)CC1 [Cpd 2] as the compound, how does the remaining binding at 1 µM [1] read?
Answer: Its remaining binding at 1 µM is 96%.

Question: What about the remaining binding at 1 µM [2] of the same compound?
Answer: The remaining binding at 1 µM was 100%.

Question: And the remaining binding at 1 µM [3]?
Answer: Its remaining binding at 1 µM is 92%.

Question: And the remaining binding at 1 µM [4]?
Answer: The remaining binding at 1 µM was 94%.

Question: What about the remaining binding at 1 µM [5] of the same compound?
Answer: Its remaining binding at 1 µM is 89%.

Question: And the remaining binding at 1 µM [6]?
Answer: Its remaining binding at 1 µM is 96%.

Question: What about the remaining binding at 1 µM [7] of the same compound?
Answer: Its remaining binding at 1 µM is 100%.

Question: What about the remaining binding at 1 µM [8] of the same compound?
Answer: The remaining binding at 1 µM was 99%.

Question: And the remaining binding at 1 µM [9]?
Answer: The remaining binding at 1 µM was 70%.

Question: What about the remaining binding at 1 µM [10] of the same compound?
Answer: The remaining binding at 1 µM was 75%.

Question: What about the remaining binding at 1 µM [11] of the same compound?
Answer: Its remaining binding at 1 µM is 100%.

Question: And the remaining binding at 1 µM [12]?
Answer: The remaining binding at 1 µM was 91%.

Question: What about the remaining binding at 1 µM [13] of the same compound?
Answer: The remaining binding at 1 µM was 99%.

Question: What about the remaining binding at 1 µM [14] of the same compound?
Answer: Its remaining binding at 1 µM is 95%.

Question: What about the remaining binding at 1 µM [15] of the same compound?
Answer: The remaining binding at 1 µM was 56%.

Question: And the remaining binding at 1 µM [16]?
Answer: The remaining binding at 1 µM was 95%.

Question: And the remaining binding at 1 µM [17]?
Answer: Its remaining binding at 1 µM is 86%.

Question: And the remaining binding at 1 µM [18]?
Answer: The remaining binding at 1 µM was 100%.

Question: And the remaining binding at 1 µM [19]?
Answer: The remaining binding at 1 µM was 100%.

Question: And the remaining binding at 1 µM [20]?
Answer: The remaining binding at 1 µM was 100%.

Question: And the remaining binding at 1 µM [21]?
Answer: The remaining binding at 1 µM was 100%.

Question: And the “% Ctrl” value [22]?
Answer: Its value is 87%.

Question: What about the remaining binding at 1 µM [23] of the same compound?
Answer: Its remaining binding at 1 µM is 85%.

Question: And the levels in plasma ([24]; after intravenous administration)?
Answer: Its levels in plasma is “low levels in plasma”.

Question: And the clearance ([24]; intravenous administration)?
Answer: Its clearance is > 100 % hepatic blood flow.

Question: What about the remaining binding at 1 µM [25] of the same compound?
Answer: The remaining binding at 1 µM was 100%.

Question: And the remaining binding at 1 µM [26]?
Answer: The remaining binding at 1 µM was 85%.

Question: And the remaining binding at 1 µM [27]?
Answer: Its remaining binding at 1 µM is 82%.

Question: And the remaining binding at 1 µM [28]?
Answer: The remaining binding at 1 µM was 70%.

Question: And the remaining binding at 1 µM [29]?
Answer: Its remaining binding at 1 µM is 100%.

Question: And the remaining binding at 1 µM [30]?
Answer: Its remaining binding at 1 µM is 99%.

Question: And the remaining binding at 1 µM [31]?
Answer: The remaining binding at 1 µM was 82%.

Question: What about the remaining binding at 1 µM [32] of the same compound?
Answer: Its remaining binding at 1 µM is 100%.

Question: And the remaining binding at 1 µM [33]?
Answer: Its remaining binding at 1 µM is 95%.

Question: What about the remaining binding at 1 µM [34] of the same compound?
Answer: The remaining binding at 1 µM was 100%.

Question: What about the remaining binding at 1 µM [35] of the same compound?
Answer: The remaining binding at 1 µM was 93%.

Question: And the remaining binding at 1 µM [36]?
Answer: Its remaining binding at 1 µM is 86%.

Question: What about the remaining binding at 1 µM [37] of the same compound?
Answer: Its remaining binding at 1 µM is 99%.
